According to ChEMBL document CHEMBL1255522, “Novel amides and esters prodrugs of olmesartan: Synthesis, bioconversion, and pharmacokinetic evaluation” (Bioorg Med Chem Lett, 2010):

Assay: Stability in Sprague-Dawley rat plasma assessed as compound remaining at 50 mg/ml after 30 mins
Format: ADME, cell-free
Conditions: read-out: Stability

SMILES | remaining at 0.5 h
CCCc1nc(C(C)(C)O)c(C(=O)NCCCCCC[N+](=O)[O-])n1Cc1ccc(-c2ccccc2C2=NNNN2)cc1 | 101%
CCCc1nc(C(C)(C)O)c(C(=O)NCCNCCO)n1Cc1ccc(-c2ccccc2C2=NNNN2)cc1 | 98.9%
CCCc1nc(C(C)(C)O)c(C(=O)NCCCCCCC(=O)O)n1Cc1ccc(-c2ccccc2C2=NNNN2)cc1 | 97.5%

Next, values leading:

remaining at 0.5 h | SMILES
96.3% | CCCc1nc(C(C)(C)O)c(C(=O)OCc2c[nH]c(=O)[nH]c2=O)n1Cc1ccc(-c2ccccc2C2=NNNN2)cc1
81.1% | CCCc1nc(C(C)(C)O)c(C(=O)OCCCCCCC(=O)OCC)n1Cc1ccc(-c2ccccc2C2=NNNN2)cc1
98.8% | CCCc1nc(C(C)(C)O)c(C(=O)OCCCCCCC(=O)O)n1Cc1ccc(-c2ccccc2C2=NNNN2)cc1
100% | CCCc1nc(C(C)(C)O)c(C(=O)OCCCCCC[N+](=O)[O-])n1Cc1ccc(-c2ccccc2C2=NNNN2)cc1
90.2% | CCCCCCCCOC(=O)c1c(C(C)(C)O)nc(CCC)n1Cc1ccc(-c2ccccc2C2=NNNN2)cc1
